Reference: patent publication US20250353825A1, “CANNABICYCLOL DERIVATIVES AND PREPARATION METHODS THEREOF” (priority 2023, published 2025)
≈ marks a conversion by molar mass, not a printed value.

Tests used:
Type in all cases: cell-based
GSC-3 (3#-GSC) = experiment: MTS cell viability assay, glioblastoma stem cells GSC-3 (3#-GSC)
Experimental: (§1) Primary viability screening: (1) the synthesized compounds 3a to 13d were respectively dissolved in DMSO to prepare a 40 μg/mL cannabicyclol and cannabicyclol derivative solutions.
(§2) (2) A control group: a 200 μL DMSO solvent.
(§3) (3) The solutions of compounds 3a to 13d were diluted in a twofold gradient to obtain cannabicyclol and cannabicyclol derivative solutions at concentrations of 40 μg/mL, 20 μg/mL, 10 μg/mL, 5 μg/mL, 2.5 μg/mL, 1.25 μg/mL, and 0.625 μg/mL, and 0.3125 μg/mL, respectively.
(§4) (4) Three glioblastoma stem cells (GSC-3, GSC-12, and GSC-18), three pancreatic cancer cell-derived stem cells (PANC-1-CSC, BXPC-3-CSC, and ASPC1-CSC), three liver cancer cell-derived stem cells (HepG2-CSC, MHCC97H-CSC, and SMMC7721-CSC), HEK-293T cells, 16 tumor cells (U251, U87, T98G, PANC1, BXPC3, ASPC1, HepG2, MHCC97H, SMMC7721, PC3, SKOV3, MDA-MB231, A549, HCT116, HEC-1B, MKN28), and differentiated glioblastoma stem cells (GSC-3diff and GSC-12diff) derived from GSC-3 and GSC-12 (all of the cells were provided by the Laboratory of Tumor Animal Model Preparation and Application Research, West China Hospital, Sichuan University) were inoculated into a 96-well plate at a concentration of 2×10^4 cells/well, and 100 μL of culture medium was then added to each well;
(§5) (5) 2) HEK-293T, GSC-3diff, GSC-12diff, and the 16 tumor cells were added with DMEM, 10% FBS, and 1% double antibody culture medium. Cancer stem cells (CSCs) were added with serum-free stem cell medium consisting of DMEM/F12, EGF (20 ng/mL), bFGF (20 ng/mL), B27 (1×), and 1% double antibody culture medium.
(§6) (6) Inoculated cells were put into a cell culture incubator for 24 hours, and after the cells were well adhered to the wall, the culture medium in the 96-well plate was discarded.
(§7) (7) 200 μL cannabicyclol and cannabicyclol derivatives solutions at different concentrations were added to the cultured cells.
(§8) (8) The experiment was set up with 3 replicates.
(§9) (9) The 96-well plate was placed in a cell culture incubator, and incubation was continued at 37° C. and 5% CO2 for 72 hours. Then, 100 μL of cannabicyclol and cannabicyclol derivative solution per well was discarded (100 μL of DMSO solvent was discarded for the control group), and 20 μL of LMTS (CellTiter AQueous Non-Radioactive Cell Proliferation Assay, #G3581) was mixed and continued to be placed in the cell incubator for 2 hours of incubation.
(§10) (10) The absorbance value at 490 nm was measured on an enzyme labeling apparatus, and the IC50 value was calculated.

[1] = MTS cell viability assay, HEK-293T (293T) normal cells; conditions: human; primary viability screening, 72 hours, MTS; test concentration not stated; read-out: Cell viability in 293T (%)
Experimental: as §1, §2, §3, §4, §5, §6, §7, §8, §9, §10

HEK-293T = experiment: as above; conditions: Homo sapiens, HEK-293T, 72 h, read-out: IC50 against HEK-293T
Experimental: as §1, §2, §3, §4, §5, §6, §7, §8, §9, §10

PANC1 = experiment: MTS cell viability assay, PANC1; conditions: Homo sapiens, PANC-1; Table 7, 72 hours; read-out: IC50 against PANC1
Experimental: as §1, §2, §3
as §4, with “well; […]” for “well;”
as §10

SKOV3 = experiment: MTS cell viability assay, SKOV3; conditions: Homo sapiens, SK-OV-3; Table 7, 72 hours; read-out: IC50 against SKOV3
Experimental: as §1, §2, §3
as §4, with “well; […]” for “well;”
as §10

MKN28 = experiment: MTS cell viability assay, MKN28; conditions: Homo sapiens, MKN-28; Table 7, 72 hours; read-out: IC50 against MKN28
Experimental: as §1, §2, §3
as §4, with “well; […]” for “well;”
as §10

SMMC7721-CSC = experiment: Soft agar colony (clone) formation, SMMC7721-CSC; conditions: crystal violet, FIG. 4, compound 3a 0, 5 and 5 [sic] μg/mL
Experimental: (§11) […] of low-melting-point agarose was dissolved in 12.5 mL of ddH2O to prepare a 3.2% low-melting-point agarose gel. The low-melting-point agarose gel was sterilized by autoclaving at 121° C. and 0.12 MPa for 20 minutes. After sterilization, the low-melting-point agarose gel was maintained at 60° C. in a drying oven for further use.
(§12) 1.75 mL of 3.2% sterile low-melting-point agarose gel was taken, 5.25 mL of the corresponding complete medium was added, and the two were mixed thoroughly using a pipette to prepare a base gel at a concentration of 0.8%.
(§13) 1 mL of the base gel was added to each well of a 6-well plate, ensuring that the base gel evenly covered the bottom of each well. The plate was placed at 4° C. for 5 minutes to allow the gel to solidify. After the gel had fully solidified, the plate was warmed at 37° C. for 5 minutes.
(§14) 6 cells/cell lines (U251, SMMC7721, GSC-3, GSC-12, SMMC7721-CSC, and HepG2-CSC) were individually digested with 1× trypsin for 3 minutes. The corresponding complete culture medium (same as in the application example 1) was added to terminate the digestion. Cells were centrifuged at 1000 rpm for 3 minutes, and the cells were collected and counted. A total of 5×10^3 cells were added to each well, each group was set up with three replicates. […]

[2] = system: liver cancer carcinoma cell line SMMC7721; experiment: Soft agar colony (clone) formation, SMMC7721; conditions: crystal violet, FIG. 4, compound 3a 0, 5 and 5 [sic] μg/mL
Experimental: as §11, §12, §13, §14

[3] = system: 9 types of cancer stem cells; experiment: MTS cell viability assay, summary over 9 types of cancer stem cells; conditions: FIG. 3, CBL solution at different concentrations
Experimental: as §1, §2, §3
as §4, with “well; […]” for “well;”
as §10

SMILES: CCCCCc1cc(O)c2c(c1)OC1(C)CCC3C1C2C3(C)C (centres unmarked) [Compound 3a, cannabicyclol]
- IC50 (GSC-3 (3#-GSC); GSC-3, 72 h, read-out: IC50 against GSC-3): 3.85 µg/mL (≈ 12.2 µM)
- selective anti-glioma stem cell viability (GSC-3 (3#-GSC); judged in words from preliminary viability screening against 3#-GSC, 293T and U251): a certain degree of selective anti-glioma stem cell viability
- Cell viability in 3#-GSC (%) (GSC-3 (3#-GSC); primary viability screening, 72 hours, MTS, test concentration not stated): 20%
- viability at 72 h [1]: 82%
- IC50 (HEK-293T): > 40 µg/mL
- IC50 (PANC1): > 40 µg/mL
- IC50 (SKOV3): > 40 µg/mL
- IC50 (MKN28): > 40 µg/mL
- colony formation of SMMC7721-CSC (SMMC7721-CSC): significantly inhibited
- colony formation of SMMC7721 [2]: significantly inhibited
- cell viability of 9 types of cancer stem cells at different concentrations [3]: decreased with increasing concentrations
